{"source": "patent US12472261B2", "about": "“Conjugated inhibitors of DNA damage response” (ProLynx LLC, priority 2019, dated 2025)", "key": {"[1]": {"test_system": "DLD-1 BRCA2^−/−", "settings": "daily TLZ×21 days"}, "[2]": {"test_system": "MX-1 human triple-negative breast carcinoma cell line", "test": "Efficacy of PEG-talazoparib conjugates in murine MX-1 xenografts (Example 9)", "assay_type": "in vivo, mice", "settings": "MX-1 tumors", "protocol": "The MX-1 human triple-negative breast carcinoma cell line was obtained from Charles River Labs (Frederick, Md).\nTumor xenografts were established by subcutaneous injection with MX-1 tumor cells (2×10^6 cells in 100 μl of serum free medium mixed 1:1 with Matrigel) into the right flank of female NCr nude mice. When tumor xenografts reached 1000-1500 mm^3 in donor mice, they were resected, divided into even-size fragments (approximately 2.5×2.5 mm), embedded in Matrigel and re-implanted via subcutaneous trocar implantation in receiver mice.\nSolutions of talazoparib (50 μM) were prepared as by adding a solution of talazoparib in DMSO (55 mM, 454 μL) to the oral dosing buffer consisting of 10% dimethylacetamide, 6% solutol, and 84% PBS. Talazaparib content was determined by ε310nm=9872 M^−1cm^−1 in 10% dimethylacetamide, 6% solutol, and 84% PBS Solutions were delivered p.o. at 8.5-19 mL/kg to deliver 0.4 to 0.9 μmol/kg talazoparib. Solutions of PEG-talazoparib (Example 1, R^1=MeSO2, R^7=MeO(CH2)2) containing up to 8 mM talazoparib (2 mM PEG˜[talazoparib]4) were prepared in isotonic acetate (pH 5), sterile filtered through a 0.2 μM syringe filter, and TLZ content was determined by ε310nm=9872 M^−1cm^−1 in 10% dimethylacetamide, 6% solutol, and 84% PBS. Doses were delivered IP at ˜15 mL/kg mL/kg to deliver 15-120 μmol drug/kg.\nMice bearing MX-1 tumors were dosed when tumors reached ˜100-300 mm^3 in size. Dosing solutions were administered as indicated above. Tumor volumes (caliper measurement: 0.5×(length×width)) and body weights were measured twice weekly. […] Mice bearing large tumors were dosed when tumors reached 1000-3000 mm^3.\nProgressive disease (PD) was classified as PD1 or PD2 based on the tumor growth delay (TGD) values calculated as the number of days to event. For each mouse, TGD was calculated by dividing the time to event by the median time to event in the control group. […] Median times to event were estimated based on the Kaplan-Meier event-free survival distribution."}, "[3]": {"test_system": "KT-10 tumors", "settings": "KT-10, 0.1 mg/kg TLZ daily dosing; reference (26); cited from earlier work"}, "[4]": {"test_system": "DLD-1 BRCA2^wt/wt", "test": "Efficacy in murine DLD-1 BRCA2^wt/wt xenografts (Example 10)", "settings": "QD oral"}, "[5]": {"test_system": "BRCA1-deficient MX-1 tumors", "assay_type": "in vivo"}}}
{"smiles": "Cn1ncnc1[C@H]1c2n[nH]c(=O)c3cc(F)cc(c23)N[C@@H]1c1ccc(F)cc1", "note": "[TLZ, talazoparib]", "values": [{"measurement": "increase in median event free survival", "setting": "[1]", "result": 11, "unit": "fold"}, {"measurement": "MCR (number of mice, Houghton analysis)", "setting": "[2]; dose 0.4 μmol/kg", "result": 1}, {"measurement": "PD2 (number of mice, Houghton analysis)", "setting": "[2]; dose 0.4 μmol/kg", "result": 4}, {"measurement": "CR (number of mice, Houghton analysis)", "setting": "[2]; dose 0.7 μmol/kg", "result": 2}, {"measurement": "MCR (number of mice, Houghton analysis)", "setting": "[2]; dose 0.7 μmol/kg", "result": 1}, {"measurement": "PR (number of mice, Houghton analysis)", "setting": "[2]; dose 0.7 μmol/kg", "result": 2}, {"measurement": "response of KT-10 to daily TLZ", "setting": "[3]", "result": "maintained CRs over 12 wks"}, {"measurement": "median EFS of treated animals vs controls", "setting": "[4]", "result": "no increase"}, {"measurement": "tumor response", "setting": "[4]", "result": "resistant"}, {"measurement": "duration of growth suppression", "setting": "[5]; MX-1, daily oral 0.4 μmol/kg (0.15 mg/kg)", "result": "~3", "unit": "wks"}, {"measurement": "median EFS", "setting": "[5]; MX-1, daily oral 0.4 μmol/kg, event = doubling of initial tumor volume", "result": 35, "unit": "days"}]}
